pIC50: −log10 of the molar value.
Experiments:
Type in all cases: biochemical
[1] = tested on: MER/AXL; test: Dual MER/AXL inhibition (enzymatic); details: class for both MER and AXL
[2] = biological target: T1, MERTK (Homo sapiens, UniProt Q12866); test: MERTK enzymatic assay (Kinase Glo); details: purified kinase, ATP 12 μM, read-out: MER Enzymatic Inhibition (%)
T1 sequence (Q12866 21-999): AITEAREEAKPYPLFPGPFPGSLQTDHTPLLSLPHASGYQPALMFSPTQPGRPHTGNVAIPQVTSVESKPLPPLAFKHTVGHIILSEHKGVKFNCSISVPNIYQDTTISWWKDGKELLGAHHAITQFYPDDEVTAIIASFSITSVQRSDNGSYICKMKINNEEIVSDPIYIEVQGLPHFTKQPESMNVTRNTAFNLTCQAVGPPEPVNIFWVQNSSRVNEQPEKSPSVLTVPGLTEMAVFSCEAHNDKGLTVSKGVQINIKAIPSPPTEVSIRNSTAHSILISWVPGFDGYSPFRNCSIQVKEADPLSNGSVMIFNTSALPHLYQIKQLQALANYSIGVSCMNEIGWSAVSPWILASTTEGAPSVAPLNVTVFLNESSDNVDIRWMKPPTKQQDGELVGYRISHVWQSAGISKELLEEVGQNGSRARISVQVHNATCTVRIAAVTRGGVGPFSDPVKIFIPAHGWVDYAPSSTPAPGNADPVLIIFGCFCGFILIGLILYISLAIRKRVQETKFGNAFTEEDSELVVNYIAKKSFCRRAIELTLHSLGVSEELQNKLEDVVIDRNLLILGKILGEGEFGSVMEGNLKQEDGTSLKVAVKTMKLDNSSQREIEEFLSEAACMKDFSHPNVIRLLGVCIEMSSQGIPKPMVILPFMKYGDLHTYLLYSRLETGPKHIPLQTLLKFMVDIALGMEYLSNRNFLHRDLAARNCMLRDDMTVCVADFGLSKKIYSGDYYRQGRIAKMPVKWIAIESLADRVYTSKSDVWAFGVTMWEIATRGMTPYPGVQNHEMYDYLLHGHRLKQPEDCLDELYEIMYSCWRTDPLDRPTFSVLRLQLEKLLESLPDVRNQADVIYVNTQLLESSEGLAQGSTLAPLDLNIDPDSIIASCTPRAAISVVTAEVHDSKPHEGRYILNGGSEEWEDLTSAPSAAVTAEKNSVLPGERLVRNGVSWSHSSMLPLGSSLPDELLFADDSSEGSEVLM

[3] = biological target: T2, AXL (Homo sapiens, UniProt P30530); test: AXL enzymatic assay (ADP-Glo); details: purified kinase, ATP 50 μM, read-out: AXL Enzymatic Inhibition (%)
T2 sequence (P30530 26-894): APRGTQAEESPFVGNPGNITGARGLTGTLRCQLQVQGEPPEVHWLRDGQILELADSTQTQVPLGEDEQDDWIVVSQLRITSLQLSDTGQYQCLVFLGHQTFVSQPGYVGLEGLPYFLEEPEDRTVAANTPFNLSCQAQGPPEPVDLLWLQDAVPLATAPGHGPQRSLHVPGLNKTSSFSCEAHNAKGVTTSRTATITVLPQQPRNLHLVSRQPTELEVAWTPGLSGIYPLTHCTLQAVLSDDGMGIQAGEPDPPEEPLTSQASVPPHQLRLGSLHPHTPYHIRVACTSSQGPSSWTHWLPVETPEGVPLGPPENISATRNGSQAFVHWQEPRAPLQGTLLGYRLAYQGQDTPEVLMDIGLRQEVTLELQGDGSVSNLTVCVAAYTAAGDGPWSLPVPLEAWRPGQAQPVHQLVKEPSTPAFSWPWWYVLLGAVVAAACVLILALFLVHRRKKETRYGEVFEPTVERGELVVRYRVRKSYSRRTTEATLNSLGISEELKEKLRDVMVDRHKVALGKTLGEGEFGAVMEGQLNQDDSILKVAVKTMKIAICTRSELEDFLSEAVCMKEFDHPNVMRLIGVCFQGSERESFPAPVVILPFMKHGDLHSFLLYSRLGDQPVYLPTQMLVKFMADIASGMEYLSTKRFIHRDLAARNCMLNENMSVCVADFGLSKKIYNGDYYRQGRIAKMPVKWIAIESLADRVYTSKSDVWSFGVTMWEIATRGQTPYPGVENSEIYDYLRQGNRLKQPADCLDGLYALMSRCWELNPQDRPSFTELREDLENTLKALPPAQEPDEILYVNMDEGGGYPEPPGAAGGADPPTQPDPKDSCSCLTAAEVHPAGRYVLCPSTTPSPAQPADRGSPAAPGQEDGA

Row | SMILES | pIC50 [1] | pIC50 [2] | pIC50 [3]
1 | COc1nn(-c2ccc(C)cc2)cc1C(=O)Nc1ccc(Oc2ncnc3oc(-c4cnn(C)c4)c(-c4cccc(N)c4)c23)cc1 [Compound 136] | 4.30 to 7.00 | 4.30 to 7.00 | 4.30 to 7.00
2 | O=C(Nc1ccc(Oc2ncnc3[nH]c(-c4ccsc4)cc23)cc1)c1cccn(-c2ccc(F)cc2)c1=O [Compound 79] | 4.30 to 7.00 | 4.30 to 7.00 | 4.30 to 7.00
3 | CN(C)Cc1cccc(-c2n[nH]c3ncnc(Oc4ccc(NC(=O)c5cccn(-c6ccc(F)cc6)c5=O)cc4)c23)c1 [Compound 88] | 7.00 to 7.70 | 7.00 to 7.70 | > 7.70
4 | CC(=O)Nc1cccc(-c2c(-c3cnn(C)c3)oc3ncnc(Oc4ccc(NC(=O)c5cc6c(n(-c7ccc(F)cc7)c5=O)CCCC6=O)cc4)c23)c1 [Compound 69] | 4.30 to 7.00 | 4.30 to 7.00 | > 7.70
5 | O=C(Nc1ccc(Oc2ncnc3oc(-c4ccccc4)cc23)cc1)c1cccn(-c2ccc(F)cc2)c1=O [Compound 42] | 4.30 to 7.00 | 4.30 to 7.00 | 4.30 to 7.00
6 | O=C(Nc1ccc(Oc2ncnc3[nH]cc(-c4ccccn4)c23)cc1)c1cccn(-c2ccc(F)cc2)c1=O [Compound 17] | 4.30 to 7.00 | 4.30 to 7.00 | > 7.70
7 | Cn1cc(-c2oc3ncnc(Oc4ccc(NC(=O)c5ccc(-c6cccc(F)c6)o5)cc4)c3c2-c2cccc(N)c2)cn1 [Compound 119] | 4.30 to 7.00 | 4.30 to 7.00 | 7.00 to 7.70
8 | O=C(Nc1ccc(Oc2ncnc3[nH]cc(-c4cccnc4)c23)cc1)c1cccn(-c2ccc(F)cc2)c1=O [Compound 16] | 4.30 to 7.00 | 4.30 to 7.00 | > 7.70
9 | CNc1cccc(-c2c[nH]c3ncnc(Oc4ccc(NC(=O)c5cccn(-c6ccc(F)cc6)c5=O)cc4)c23)c1 [Compound 22] | 4.30 to 7.00 | 4.30 to 7.00 | 7.00 to 7.70
10 | CC(=O)Nc1cccc(-c2n[nH]c3ncnc(Oc4ccc(NC(=O)c5cccn(-c6ccc(F)cc6)c5=O)cc4)c23)c1 [Compound 35] | 4.30 to 7.00 | 4.30 to 7.00 | 7.00 to 7.70
11 | Nc1cccc(-c2n[nH]c3ncnc(Oc4ccc(NC(=O)c5cccn(-c6ccc(F)cc6)c5=O)cc4)c23)c1 [Compound 36] | 4.30 to 7.00 | 4.30 to 7.00 | 7.00 to 7.70
12 | CC(=O)Nc1cccc(-c2c(-c3cnn(C)c3)oc3ncnc(Oc4ccc(NC(=O)c5cc(-c6ccc(F)cc6)on5)cc4)c23)c1 [Compound 116] | 4.30 to 7.00 | 4.30 to 7.00 | 4.30 to 7.00
13 | Cn1cc(-c2oc3ncnc(Oc4ccc(NC(=O)c5cccn(-c6ccc(F)cc6)c5=O)cc4)c3c2-c2cccc(N3CCNCC3)c2)cn1 [Compound 33] | > 7.70 | > 7.70 | > 7.70
14 | CC(=O)Nc1cccc(-c2c(-c3c(C)noc3C)oc3ncnc(Oc4ccc(NC(=O)c5cccn(-c6ccc(F)cc6)c5=O)cc4)c23)c1 [Compound 26] | 4.30 to 7.00 | 4.30 to 7.00 | 4.30 to 7.00
15 | CN1CCN(c2ccc(-c3c(-c4cnn(C)c4)oc4ncnc(Oc5ccc(NC(=O)c6cccn(-c7ccc(F)cc7)c6=O)cc5)c34)cc2)CC1 [Compound 34] | > 7.70 | > 7.70 | > 7.70
16 | CN(C)Cc1cccc(-c2c[nH]c3ncnc(Oc4ccc(NC(=O)c5cccn(-c6ccc(F)cc6)c5=O)cc4)c23)c1 [Compound 82] | > 7.70 | > 7.70 | > 7.70
17 | Cn1cc(-c2oc3ncnc(Oc4ccc(NC(=O)c5cc(-c6ccc(F)cc6)on5)cc4)c3c2-c2cccc(N)c2)cn1 [Compound 115] | 4.30 to 7.00 | 4.30 to 7.00 | 4.30 to 7.00
18 | Cn1cc(-c2oc3ncnc(Oc4ccc(NC(=O)c5ccc(-c6ccc(F)cc6)o5)cc4)c3c2-c2cccc(N)c2)cn1 [Compound 117] | 4.30 to 7.00 | 4.30 to 7.00 | 7.00 to 7.70
19 | CC(=O)Nc1cccc(-c2coc3ncnc(Oc4ccc(NC(=O)c5cccn(-c6ccc(F)cc6)c5=O)cc4)c23)c1 [Compound 47] | 4.30 to 7.00 | 4.30 to 7.00 | 7.00 to 7.70
20 | CC(=O)Nc1cccc(-c2c[nH]c3ncnc(Oc4ccc(NC(=O)c5cn(C)n(-c6ccc(F)cc6)c5=O)cc4)c23)c1 [Compound 125] | 4.30 to 7.00 | 4.30 to 7.00 | 4.30 to 7.00
21 | COc1nn(-c2ccc(C)cc2)cc1C(=O)Nc1ccc(Oc2ncnc3oc(-c4cnn(C)c4)c(-c4cccc(CN(C)C)c4)c23)cc1 [Compound 138] | 4.30 to 7.00 | 4.30 to 7.00 | 4.30 to 7.00
22 | Cn1cc(-c2oc3ncnc(Oc4ccc(NC(=O)c5cccn(-c6ccc(F)cc6)c5=O)cc4)c3c2-c2ccc(N3CCNCC3)cc2)cn1 [Compound 32] | > 7.70 | > 7.70 | > 7.70

Further lines, results first:

Row | pIC50 [1] | pIC50 [2] | pIC50 [3] | SMILES
23 | 7.00 to 7.70 | 7.00 to 7.70 | > 7.70 | CC(=O)Nc1cccc(-c2c(-c3cn[nH]c3)oc3ncnc(Oc4ccc(NC(=O)c5cccn(-c6ccc(F)cc6)c5=O)cc4)c23)c1 [Compound 40]
24 | 4.30 to 7.00 | 4.30 to 7.00 | 4.30 to 7.00 | Cn1cc(-c2oc3ncnc(Oc4ccc(NC(=O)c5cccn(-c6ccc(F)cc6)c5=O)cc4)c3c2-c2cccc(N3CCCCC3=O)c2)cn1 [Compound 175]
25 | 4.30 to 7.00 | 4.30 to 7.00 | 4.30 to 7.00 | CC(=O)Nc1cccc(-c2c(-c3cnn(C)c3)oc3ncnc(Oc4ccc(NC(=O)c5cccn(-c6ccc(F)cc6C)c5=O)cc4)c23)c1 [Compound 74]
26 | 4.30 to 7.00 | 4.30 to 7.00 | > 7.70 | CC(=O)Nc1cccc(-c2c(-c3cn(C)nc3C)oc3ncnc(Oc4ccc(NC(=O)c5cccn(-c6ccc(F)cc6)c5=O)cc4)c23)c1 [Compound 27]
27 | 7.00 to 7.70 | 7.00 to 7.70 | > 7.70 | Cn1cc(-c2oc3ncnc(Oc4ccc(NC(=O)c5cccn(-c6ccc(F)nc6)c5=O)cc4)c3c2-c2cccc(N)c2)cn1 [Compound 80]
28 | 4.30 to 7.00 | 4.30 to 7.00 | 4.30 to 7.00 | CC(=O)Nc1cccc(-c2c(-c3cnn(C)c3)oc3ncnc(Oc4ccc(NC(=O)c5cccn(-c6ccc(F)nc6)c5=O)cc4)c23)c1 [Compound 81]
29 | 4.30 to 7.00 | 4.30 to 7.00 | > 7.70 | Cn1cc(-c2oc3ncnc(Oc4ccc(NC(=O)c5cccn(-c6ccc(F)cc6)c5=O)cc4)c3c2-c2cccnc2)cn1 [Compound 31]
30 | 7.00 to 7.70 | 7.00 to 7.70 | > 7.70 | Cn1cc(-c2oc3ncnc(Oc4ccc(NC(=O)c5cccn(-c6ccccc6)c5=O)cc4)c3c2-c2cccc(N)c2)cn1 [Compound 54]
31 | 4.30 to 7.00 | 4.30 to 7.00 | > 7.70 | CC(=O)Nc1cccc(-c2c(-c3ccsc3)oc3ncnc(Oc4ccc(NC(=O)c5cccn(-c6ccc(F)cc6)c5=O)cc4)c23)c1 [Compound 59]
32 | 4.30 to 7.00 | 4.30 to 7.00 | 4.30 to 7.00 | CN(C)Cc1ccccc1-c1c(-c2cnn(C)c2)oc2ncnc(Oc3ccc(NC(=O)c4cccn(-c5ccc(F)cc5)c4=O)cc3)c12 [Compound 91]
33 | 4.30 to 7.00 | 4.30 to 7.00 | 4.30 to 7.00 | CCNc1cccc(-c2c(-c3cnn(C)c3)oc3ncnc(Oc4ccc(NC(=O)c5cccn(-c6ccc(F)cc6)c5=O)cc4)c23)c1 [Compound 177]

Reference: patent US20260070911A1, “INHIBITORS OF TAM RECEPTORS” (National Health Research Institutes, priority 2022, published 2026)
